Assays:
[1] = system: Mycobacterium tuberculosis; assay: Antimycobacterial activity against multidrug resistance Mycobacterium tuberculosis 16883 clinical isolate assessed as inhibition of bacterial growth incubated for 7 days by MABA assay; format: functional; conditions: Mycobacterium tuberculosis, 16883, 168 h; time 7 day
[2] = system: Mycobacterium tuberculosis; assay: Antimycobacterial activity against multidrug resistance Mycobacterium tuberculosis 16995 clinical isolate assessed as inhibition of bacterial growth incubated for 7 days by MABA assay; format: functional; conditions: Mycobacterium tuberculosis, 16995, 168 h; time 7 day

Compound: O=c1nc(N2CCC3(CC2)CN(Cc2ccc(F)cc2)C3)sc2c([N+](=O)[O-])cc(C(F)(F)F)cc12
- MIC [1]: < 0.016 µg/mL
- MIC [2]: < 0.016 µg/mL

Compound: O=c1nc(N2CCC3(CC2)CN(Cc2ccc(OC(F)(F)F)cc2)C3)sc2c([N+](=O)[O-])cc(C(F)(F)F)cc12
- MIC [1]: < 0.016 µg/mL
- MIC [2]: < 0.016 µg/mL

Compound: O=c1nc(N2CCC3(CC2)CN(Cc2ccc(Br)cc2)C3)sc2c([N+](=O)[O-])cc(C(F)(F)F)cc12
- MIC [1]: < 0.016 µg/mL
- MIC [2]: < 0.016 µg/mL

Compound: CC(c1cccc(F)c1)N1CC2(CCN(c3nc(=O)c4cc(C(F)(F)F)cc([N+](=O)[O-])c4s3)CC2)C1 (centres undefined)
- MIC [1]: < 0.016 µg/mL
- MIC [2]: < 0.016 µg/mL

Compound: CC(c1cc(F)cc(F)c1)N1CC2(CCN(c3nc(=O)c4cc(C(F)(F)F)cc([N+](=O)[O-])c4s3)CC2)C1 (centres undefined)
- MIC [1]: < 0.016 µg/mL
- MIC [2]: < 0.016 µg/mL

Compound: O=c1nc(N2CCN(CC3CCCCC3)CC2)sc2c([N+](=O)[O-])cc(C(F)(F)F)cc12 [MACOZINONE]
- MIC [1]: < 0.016 µg/mL
- MIC [2]: < 0.016 µg/mL

Compound: O=c1nc(N2CCC3(CC2)CN(Cc2ccc(C(F)(F)F)cc2)C3)sc2c([N+](=O)[O-])cc(C(F)(F)F)cc12
- MIC [1]: < 0.016 µg/mL
- MIC [2]: < 0.016 µg/mL

Compound: CC(c1ccc(Br)cc1)N1CC2(CCN(c3nc(=O)c4cc(C(F)(F)F)cc([N+](=O)[O-])c4s3)CC2)C1 (centres undefined)
- MIC [1]: < 0.016 µg/mL
- MIC [2]: < 0.016 µg/mL

Compound: NNC(=O)c1ccncc1 [ISONIAZID]
- MIC [1]: > 10 µg/mL
- MIC [2]: > 10 µg/mL

Compound: O=c1nc(N2CCC3(CC2)CN(Cc2cc(F)cc(F)c2)C3)sc2c([N+](=O)[O-])cc(C(F)(F)F)cc12
- MIC [1]: < 0.016 µg/mL
- MIC [2]: < 0.016 µg/mL

Compound: CC(c1ccc(F)cc1)N1CC2(CCN(c3nc(=O)c4cc(C(F)(F)F)cc([N+](=O)[O-])c4s3)CC2)C1 (centres undefined)
- MIC [1]: < 0.016 µg/mL
- MIC [2]: < 0.016 µg/mL

Compound: CC(c1cc(F)c(F)c(F)c1)N1CC2(CCN(c3nc(=O)c4cc(C(F)(F)F)cc([N+](=O)[O-])c4s3)CC2)C1 (centres undefined)
- MIC [1]: < 0.016 µg/mL
- MIC [2]: < 0.016 µg/mL

Compound: CC(c1ccc(OC(F)(F)F)cc1)N1CCC2(CC1)CN(c1nc(=O)c3cc(C(F)(F)F)cc([N+](=O)[O-])c3s1)C2 (centres undefined)
- MIC [1]: < 0.016 µg/mL
- MIC [2]: < 0.016 µg/mL

Compound: CC(c1ccc(F)c(Cl)c1)N1CC2(CCN(c3nc(=O)c4cc(C(F)(F)F)cc([N+](=O)[O-])c4s3)CC2)C1 (centres undefined)
- MIC [1]: < 0.016 µg/mL
- MIC [2]: < 0.016 µg/mL

Compound: CC(c1ccc(C(F)(F)F)cc1)N1CC2(CCN(c3nc(=O)c4cc(C(F)(F)F)cc([N+](=O)[O-])c4s3)CC2)C1 (centres undefined)
- MIC [1]: < 0.016 µg/mL
- MIC [2]: < 0.016 µg/mL

Compound: CC(c1ccc(Cl)cc1)N1CC2(CCN(c3nc(=O)c4cc(C(F)(F)F)cc([N+](=O)[O-])c4s3)CC2)C1 (centres undefined)
- MIC [1]: < 0.016 µg/mL
- MIC [2]: < 0.016 µg/mL

Compound: CC(c1ccc(F)c(F)c1)N1CC2(CCN(c3nc(=O)c4cc(C(F)(F)F)cc([N+](=O)[O-])c4s3)CC2)C1 (centres undefined)
- MIC [1]: < 0.016 µg/mL
- MIC [2]: < 0.016 µg/mL

Compound: CO[C@H]1/C=C/O[C@@]2(C)Oc3c(C)c(O)c4c(O)c(c(/C=N/N5CCN(C)CC5)c(O)c4c3C2=O)NC(=O)/C(C)=C\C=C\[C@H](C)[C@H](O)[C@@H](C)[C@@H](O)[C@@H](C)[C@H](OC(C)=O)[C@@H]1C [RIFAMPIN]
- MIC [1]: > 10 µg/mL
- MIC [2]: > 10 µg/mL

Compound: O=c1nc(N2CCC3(CC2)CN(Cc2cccc(F)c2)C3)sc2c([N+](=O)[O-])cc(C(F)(F)F)cc12
- MIC [1]: < 0.016 µg/mL
- MIC [2]: < 0.016 µg/mL

Compound: CC(c1ccc(F)cc1F)N1CC2(CCN(c3nc(=O)c4cc(C(F)(F)F)cc([N+](=O)[O-])c4s3)CC2)C1 (centres undefined)
- MIC [1]: < 0.016 µg/mL
- MIC [2]: < 0.016 µg/mL

Compound: CC(c1ccc(OC(F)(F)F)cc1)N1CC2(CCN(c3nc(=O)c4cc(C(F)(F)F)cc([N+](=O)[O-])c4s3)CC2)C1 (centres undefined)
- MIC [1]: < 0.016 µg/mL
- MIC [2]: < 0.016 µg/mL

Compound: CC(c1ccc(Cl)c(F)c1)N1CC2(CCN(c3nc(=O)c4cc(C(F)(F)F)cc([N+](=O)[O-])c4s3)CC2)C1 (centres undefined)
- MIC [1]: < 0.016 µg/mL
- MIC [2]: < 0.016 µg/mL
